The assay concerns the target T1, human S1P1 receptor (Homo sapiens, UniProt P21453).
T1 construct: expressed in transfected cells; membranes were used
Description: GTP γ35S binding assay for S1P1 activity. As to conditions: membranes of cells stably expressing the S1P1 receptor, agonist potency. In kind it is biochemical. As to the method: Compounds were synthesized and tested for S1P1 activity using the GTP γ^35S binding assay. These compounds may be assessed for their ability to activate or block activation of the human S1P1 receptor in cells stably expressing the S1P1 receptor.
GTP γ^35S binding was measured in the medium containing (mM) HEPES 25, pH 7.4, MgCl2 10, NaCl 100, dithiothreitol 0.5, digitonin 0.003%, 0.2 nM GTP γ^35S, and 5 μg membrane protein in a volume of 150 μl. Test compounds were included in the concentration range from 0.08 to 5,000 nM unless indicated otherwise. Membranes were incubated with 100 μM 5′-adenylylimidodiphosphate for 30 min, and subsequently with 10 μM GDP for 10 min on ice. Drug solutions and membrane were mixed, and then reactions were initiated by adding GTP γ^35S and continued for 30 min at 25° C. Reaction mixtures were filtered over Whatman GF/B filters under vacuum, and washed three times with 3 mL of ice-cold buffer (HEPES 25, pH7.4, MgCl2 10 and NaCl 100). Filters were dried and mixed with scintillant, and counted for ^35S activity using a β-counter. Agonist-induced GTP γ^35S binding was obtained by subtracting that in the absence of agonist. Binding data were analyzed using a non-linear regression method. In case of antagonist assay, the reaction mixture contained 10 nM […] in the presence of test antagonist at concentrations ranging from 0.08 to 5000 nM.
T1 sequence (P21453 whole entry): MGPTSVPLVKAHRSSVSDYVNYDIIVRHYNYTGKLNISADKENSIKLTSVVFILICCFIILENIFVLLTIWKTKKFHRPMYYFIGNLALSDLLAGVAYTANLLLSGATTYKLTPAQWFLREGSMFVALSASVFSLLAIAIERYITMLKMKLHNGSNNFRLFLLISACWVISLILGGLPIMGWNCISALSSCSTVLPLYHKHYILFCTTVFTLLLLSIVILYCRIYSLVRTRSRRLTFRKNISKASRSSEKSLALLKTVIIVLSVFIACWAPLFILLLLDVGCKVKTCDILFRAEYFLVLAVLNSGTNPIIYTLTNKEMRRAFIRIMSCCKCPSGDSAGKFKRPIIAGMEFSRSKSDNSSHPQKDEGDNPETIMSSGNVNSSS
`O=C(O)C1CN(CCCCCCCCC(Cc2ccccc2)c2cccc(Cl)c2)C1` (stereo not shown) [Compound 1, 1-[9-(3-Chlorophenyl)-10-phenyldecyl]azetidine-3-carboxylic acid] showed an EC50 of 129 nM. Then `Cc1ccc(CC(CCCCCCCN2CC(C(=O)O)C2)c2cc(F)cc(F)c2)cc1C` (stereo not shown) [Compound 2, 1-[8-(3,5-Difluorophenyl)-9-(3,4-dimethylphenyl)nonyl]azetidine-3-carboxylic acid], with 61.4 nM.

Consider `Cc1ccc(CC(CCCCCCN2CC(C(=O)O)C2)c2cccc(Cl)c2)cc1C` (stereo not shown) [Compound 3, 1-[7-(3-Chlorophenyl)-8-(3,4-dimethylphenyl)octyl]azetidine-3-carboxylic acid], for which the response was half-maximal at 801 nM (EC50).

Regarding `Cc1ccc(CC(CCCCCCCN2CC(C(=O)O)C2)c2cccc(Cl)c2)cc1C` (stereo not shown) [Compound 4, 1-[8-(3-Chlorophenyl)-9-(3,4-dimethylphenyl)nonyl]azetidine-3-carboxylic acid], a half-maximal effect (EC50) was put at 644 nM.

The record behind these values is US20150051186A1, “ARYL AZETIDINE DERIVATIVES AS SPHINGOSINE-1 PHOSPHATE RECEPTORS MODULATORS” (Allergan, Inc., priority 2013, published 2015).
